What was measured:
[1] = target: T1, enzyme FAAH (fatty acid amide hydrolase) (Mus musculus, UniProt O08914); test: radioenzymatic assay of FAAH inhibition (hydrolysis of anandamide [1-3H ethanolamine], mouse brain membrane homogenates); assay type: biochemical; conditions: 10 μM anandamide, 15 minutes at 25° C., read-out: IC50 (concentration inhibiting by 50% the control enzymatic activity of FAAH)
T1 construct: Membrane homogenates are prepared at the time of use by homogenizing the tissues in a Polytron; from tissue; host or cells: mouse brain (minus the cerebellum), membrane homogenate
T1 sequence (O08914 1-579): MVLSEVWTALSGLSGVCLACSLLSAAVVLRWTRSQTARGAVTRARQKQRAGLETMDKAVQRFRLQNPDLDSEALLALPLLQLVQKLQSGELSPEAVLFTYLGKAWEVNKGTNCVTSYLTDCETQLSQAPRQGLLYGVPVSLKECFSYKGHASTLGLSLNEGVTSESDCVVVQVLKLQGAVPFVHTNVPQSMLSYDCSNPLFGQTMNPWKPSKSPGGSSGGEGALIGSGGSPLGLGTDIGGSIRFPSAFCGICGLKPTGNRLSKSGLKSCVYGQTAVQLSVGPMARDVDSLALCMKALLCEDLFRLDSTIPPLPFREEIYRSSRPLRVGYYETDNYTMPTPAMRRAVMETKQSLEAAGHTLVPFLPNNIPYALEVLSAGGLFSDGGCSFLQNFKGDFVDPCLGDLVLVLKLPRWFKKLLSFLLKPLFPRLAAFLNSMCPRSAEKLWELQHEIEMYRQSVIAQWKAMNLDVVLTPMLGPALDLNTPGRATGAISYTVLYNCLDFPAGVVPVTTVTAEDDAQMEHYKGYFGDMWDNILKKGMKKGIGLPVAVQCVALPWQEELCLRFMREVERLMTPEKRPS
Procedure: The compounds of the invention were subjected to pharmacological tests allowing determination of their inhibitory effect on the enzyme FAAH (fatty acid amide hydrolase).
Accordingly, mouse brains (minus the cerebellum) are removed and stored at −80° C. Membrane homogenates are prepared at the time of use by homogenizing the tissues in a Polytron in a 10 mM Tris-HCl buffer (pH 8.0) containing 150 mM NaCl and 1 mM EDTA. The enzymatic reaction is subsequently conducted in 70 μl of buffer containing bovine serum albumin without fatty acids (1 mg/ml). In succession the test compounds, at various concentrations, anandamide [1-^3H ethanolamine] (specific activity: 15-20 Ci/mmol) diluted to 10 μM with cold anandamide, and the membrane preparation (400 μg of frozen tissue per assay) are added. After 15 minutes at 25° C., the enzymatic reaction is terminated by adding 140 μl of chloroform/methanol (2:1). The mixture is stirred for 10 minutes and then centrifuged for 15 minutes at 3500 g. An aliquot (30 μl) of the aqueous phase containing the ethanolamine [1-^3H] is counted by liquid scintillation.

[2] = tested on: male OF1 mice; test: analgesia test: abdominal stretches induced by PBQ (phenylbenzoquinone); assay type: in vivo; conditions: 10 mg/kg p.o. at 120 minutes
Procedure: The in vivo activity of the compounds of the invention was evaluated in an analgesia test.
Accordingly, intraperitoneal (i.p.) administration of PBQ (phenylbenzoquinone, 2 mg/kg in a 0.9% sodium chloride solution containing 5% of ethanol) to male OF1 mice weighing 25 to 30 g causes abdominal stretches, on average 30 twists or contractions during the period from 5 to 15 minutes after injection. The test compounds are administered orally (p.o.) or intraperitoneally (i.p.) in suspension in Tween 80 at 0.5%, 60 minutes or 120 minutes before the administration of PBQ.

melting point [°C]	SMILES	IC50 [1] [nM]	reduction of the number of stretches induced by PBQ [2] [%]
106 to 110	CNC(=O)COC(=O)NCCC1CCN(Cc2ccc(-c3ccccc3)cc2)CC1 [Compound 25, 2-(methylamino)-2-oxoethyl 2-[1-(biphenyl-4-ylmethyl)piperidin-4-yl]ethylcarbamate]	225	–
143 to 145	CNC(=O)COC(=O)NCCC1CCN(Cc2ccc(-c3ccc(F)cc3)cc2F)CC1 [Compound 26, 2-(methylamino)-2-oxoethyl 2-{1-[(3,4′-difluorobiphenyl-4-yl)methyl]piperidin-4-yl}ethylcarbamate]	–	56
–	CNC(=O)COC(=O)NCC1CCN(CCOc2ccc(Cl)cc2Cl)CC1 [Compound 77]	49	–
